Data from PubChem BioAssay (NCI).
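These data come from cells grown in 96-well plates and exposed to compound for 48 hours at five concentrations. Abbreviation: GI50, concentration required for 50% inhibition of growth. TGI: concentration producing complete growth inhibition.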

Assays:
Assay in all cases: NCI tumour cell line growth inhibition, 48 h
[1] = test system: A498 renal
[2] = test system: A549 NSCLC
[3] = test system: IGROV1 ovarian
[4] = test system: K-562 leukemia
[5] = test system: M14 melanoma
[6] = test system: SK-MEL-2 melanoma
[7] = test system: SK-MEL-5 melanoma
[8] = test system: SR leukemia
[9] = test system: SW-620 colon
[10] = test system: UACC-62 melanoma

Structure (SMILES) | GI50 [1] | TGI [1] | GI50 [2] | TGI [2] | GI50 [3] | TGI [3] | GI50 [4] | TGI [4] | GI50 [5] | TGI [5] | GI50 [6] | TGI [6] | GI50 [7] | TGI [7] | GI50 [8] | TGI [8] | GI50 [9] | TGI [9] | GI50 [10] | TGI [10]
CNC(=O)c1ccccc1Nc1nc(Nc2ccc(N3CCOCC3)cc2OC)ncc1Cl | 488 nM | 2390 nM | 344 nM | > 20400 nM | 277 nM | 2150 nM | 4750 nM | > 90500 nM | 541 nM | > 62800 nM | 274 nM | 2500 nM | 1680 nM | > 37800 nM | 25.1 nM | 3250 nM | 314 nM | > 100000 nM | 239 nM | 2730 nM
CCOc1ccccc1-n1c(CN2CCN(C(=O)COc3ccc(CNCCCCCCN4C5CCCC4CC(OC(=O)Nc4cc(C)ccc4OC)C5)cc3)CC2)nc2ccccc2c1=O (stereo not given) | 2110 nM | 4640 nM | 1670 nM | 3270 nM | 1720 nM | 3470 nM | 651 nM | 1360 nM | 1430 nM | 3010 nM | 1990 nM | 3620 nM | 1520 nM | 2920 nM | 656 nM | 1590 nM | 757 nM | 2000 nM | 1770 nM | 3220 nM
COc1ccc(/C=C\c2cc(OC)c3c(c2)OCO3)c(O)c1O |  | 31200 nM |  | > 100000 nM |  | 20900 nM |  | 27000 nM |  | 11700 nM |  | 42600 nM |  | 6320 nM |  | > 41500 nM |  | 26100 nM |  | 14000 nM
COc1cc2nc(-c3ccc(C(F)(F)F)cc3)cc(OCCCN3CCC(O)CC3)c2cc1OC | 2370 nM | 10300 nM | 1650 nM | 18400 nM | 900 nM | 18200 nM | 1790 nM | 16700 nM | 535 nM | 2260 nM | 3850 nM | 16500 nM | 1430 nM | 4720 nM | 274 nM | 16600 nM | 3530 nM | 14800 nM | 2610 nM | 7280 nM
Cc1ccc(-c2nnc(-c3ccc4ccccc4c3)o2)cc1 |  | > 100000 nM |  | > 100000 nM |  | > 100000 nM |  | > 51200 nM |  | > 93200 nM |  | > 32600 nM |  | > 100000 nM |  | > 68400 nM |  | > 100000 nM |  | > 85600 nM
COc1ccc(-c2cc(-c3ccc(Nc4nc(Nc5ccccc5)nc(Nc5ccc(Cl)cc5)n4)cc3)nc(N)c2C#N)cc1 | 2490 nM | 11100 nM | 2740 nM | > 50000 nM | 546 nM | 1410 nM | 1520 nM | > 18600 nM | 887 nM | 1810 nM | 1090 nM | 2660 nM | 1180 nM | 3030 nM | 582 nM | 2940 nM | 1040 nM | 2300 nM | 1470 nM | 6730 nM
COc1cc2c(c(OC)c1O)C(=O)C(OC)C(c1ccc(O)c(O)c1)O2 (stereo not given) | 228 nM | 812 nM | 1310 nM | > 100000 nM | 553 nM | > 100000 nM | 48 nM | > 100000 nM | 155 nM | > 100000 nM | 1280 nM | > 100000 nM | 757 nM | 3260 nM | 68.9 nM | > 100000 nM | 234 nM | > 100000 nM | 345 nM | > 100000 nM
